Active and inactive are the calls of the source. No cut-off for these calls is given here.
Columns and labels:
Assay type in all cases: nucleic-acid assay
[1] = system: Poly(dG-dC)oligonucleotide; assay: Binding affinity to poly(dG:dC) dsDNA (unknown origin) assessed as increase in fluorescence intensity by fluorescence spectroscopy
[2] = system: Calf thymus DNA; assay: Binding affinity to calf thymus DNA assessed as minor groove binding by measuring rise in absorbance at melting temperature between 76 and 77 degC by DNA melting studies based absorbance analysis; settings: Bos taurus
[3] = system: Calf thymus DNA; assay: Binding affinity to calf thymus DNA assessed as DNA intercalation by measuring helix stabilization by DNA melting studies based absorbance analysis; settings: Bos taurus
[4] = system: Poly(dA-dT)oligonucleotide; assay: Binding affinity to poly(dA:dT) dsDNA (unknown origin) assessed as increase in fluorescence intensity by fluorescence spectroscopy
[5] = system: Calf thymus DNA; assay: Binding affinity to calf thymus DNA assessed as groove binding by measuring spectral changes up to compound:base pair concentration ratio of 1:39 in presence of 300 mM NaCl by UV-Vis spectroscopic method; settings: Bos taurus
[6] = system: Calf thymus DNA; assay: Binding affinity to calf thymus DNA assessed as groove binding by measuring induced circular dichroism with negative signs around 370-380 nm by CD spectroscopy; settings: Bos taurus
[7] = system: Poly(dA-dT)oligonucleotide; assay: Binding affinity to poly(dA:dT) dsDNA (unknown origin) assessed as binding constant by fluorescence spectroscopy
[8] = system: Calf thymus DNA; assay: Binding affinity to calf thymus DNA assessed as loss of vibronic fine structure at 50 uM by UV-Vis absorption spectroscopic method; settings: Bos taurus
[9] = system: Poly(dG-dC)oligonucleotide; assay: Binding affinity to poly(dG:dC) dsDNA (unknown origin) assessed as red shift in absorption maxima by UV-Vis spectroscopy
[10] = system: Calf thymus DNA; assay: Binding affinity to calf thymus DNA assessed as binding constant by UV-Vis absorption spectroscopic method; settings: Bos taurus
[11] = system: Calf thymus DNA; assay: Binding affinity to calf thymus DNA assessed as groove binding by measuring blue-shift in maximum emission intensity of compound by fluorescence spectroscopy; settings: Bos taurus
[12] = system: Calf thymus DNA; assay: Binding affinity to calf thymus DNA assessed as bathochromic shift in maximum absorption at 50 uM by UV-Vis absorption spectroscopic method; settings: Bos taurus
[13] = system: Poly(dA-dT)oligonucleotide; assay: Binding affinity to poly(dA:dT) dsDNA (unknown origin) assessed as red shift in absorption maxima by UV-Vis spectroscopy
[14] = system: Poly(dA-dT)oligonucleotide; assay: Binding affinity to poly(dA:dT) dsDNA (unknown origin) assessed as increase in intensity with one ligand binding for two base pairs by UV-Vis spectroscopy
[15] = system: Calf thymus DNA; assay: Binding affinity to calf thymus DNA assessed as hypochromism at 50 uM by UV-Vis spectroscopy relative to control; settings: Bos taurus

| Compound | Activity [1] | Activity [2] | Activity [3] | Activity [4] | Activity [5] | Activity [6] | K [7] | Activity [8] | Activity [9] | KB [10] | Activity [11] | Activity [12] | Activity [13] | Activity [14] | Activity [15] |
| --- | --- | --- | --- | --- | --- | --- | --- | --- | --- | --- | --- | --- | --- | --- | --- |
| C[n+]1ccc(-c2c3ccccc3c(-c3cc[n+](C)cc3)c3ccccc23)cc1 | inactive | Active | inactive | Active | Active | Active | 1.6 ×10⁵ /M | Active | inactive | 8.4 ×10⁴ /M | Active | Active | Active | Active | 74% |
| C[n+]1cc(-c2c3ccccc3c(-c3cc4ccccc4[n+](C)c3)c3ccccc23)cc2ccccc21 | – | Active | inactive | Active | – | Active | – | – | – | 2.8 ×10⁵ /M | Active | Active | – | – | 56% |
| Cc1ccc2c(-c3cc[n+](C)cc3)c3ccccc3c(-c3cc[n+](C)cc3)c2c1 | – | Active | inactive | Active | – | Active | 1 ×10⁵ /M | – | – | 6.2 ×10⁴ /M | Active | Active | – | – | 41% |
| C[n+]1ccccc1-c1c2ccccc2c(-c2cccc[n+]2C)c2ccccc12 | – | – | – | inactive | – | inactive | – | – | – | – | inactive | inactive | – | – | – |
| CCc1ccc2c(-c3cc[n+](C)cc3)c3ccccc3c(-c3cc[n+](C)cc3)c2c1 | – | Active | inactive | Active | – | Active | – | – | – | 1.2 ×10⁴ /M | Active | Active | – | – | 55% |
| c1ccc2c(-c3ccncc3)c3ccccc3c(-c3ccncc3)c2c1 | – | – | – | – | – | – | – | – | – | – | – | inactive | – | – | – |
| C[n+]1ccc(-c2c3ccccc3c(-c3cc[n+](C)cc3)c3cc(C(C)(C)C)ccc23)cc1 | – | Active | inactive | Active | – | inactive | – | – | – | 7.3 ×10³ /M | Active | Active | – | – | 66% |
| C[n+]1cccc(-c2c3ccccc3c(-c3ccc[n+](C)c3)c3ccccc23)c1 | – | Active | inactive | Active | – | Active | – | – | – | 1.8 ×10⁵ /M | Active | Active | – | – | 41% |
